Experimental data: article PMC12040169 (PLOS Biology, 2025)

What was measured:
[1] = tested on: T1, CTL2-GFP (C. trachomatis L2/434/Bu, GFP-expressing); test: microbe, parasite or virus in culture; set-up: Intracellular C. trachomatis growth in HeLa cells, bulk GFP fluorescence relative to DMSO; settings: Chlamydia trachomatis, HeLa, 28.5 h; bulk GFP, mean of 2; read-out: % of control remaining
T1 construct: L2/434/Bu, GFP-expressing
Description: MICs were calculated as described above.

in vitro [2] = test: in vitro; set-up: Viability of infected HeLa host cells, resazurin conversion, bulk resorufin fluorescence relative to DMSO; settings: human, hela cells; bulk resorufin, mean of 2
in vitro [3] = settings: human, hela cells, % viability
[4] = tested on: T2, C. trachomatis L2/434/Bu expressing GFP (CTL2-GFP); test: microbe, parasite or virus in culture; set-up: C. trachomatis total inclusion area by high-content imaging, normalised to DMSO; settings: Chlamydia trachomatis, HeLa, 28.5 h; total inclusion area; read-out: % of control remaining
T2 construct: L2/434/Bu GFP intracellular growth in HeLa cells
Method in brief: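 Read-out combines bulk fluorescence and imaging: GFP tracks chlamydial growth, resorufin tracks host cell viability. Plates were then fixed and Hoechst-stained so inclusions and nuclei could be imaged and counted per well.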

CCc1nnc(NS(=O)(=O)c2ccc(N/C=C\C(=O)c3ccc4ccccc4c3)cc2)s1 [CBK263385]
activity at 1 µM [1]: 109% | activity at 5 µM [1]: 23.6% | activity at 10 µM [1]: 24% | viability at 28.5 h, 1 µM (in vitro [2]): 93.6% | viability at 28.5 h, 5 µM (in vitro [2]): 95.1% | viability at 28.5 h, 10 µM (in vitro [2]): 88.7% | viability at 28.5 h, 10 µM (in vitro [3]): 91.4% | activity at 1 µM [4]: 110% | activity at 5 µM [4]: 33.1% | activity at 10 µM [4]: 19.1%

O=C(Nc1cc(Cl)nc(Cl)c1)N(Cc1ccc(-c2ccccc2)cc1)CC1CCNCC1 [CBK049794]
activity at 1 µM [1]: 115% | activity at 5 µM [1]: 90.8% | activity at 10 µM [1]: 90.8% | viability at 28.5 h, 1 µM (in vitro [2]): 95.2% | viability at 28.5 h, 5 µM (in vitro [2]): 100% | viability at 28.5 h, 10 µM (in vitro [2]): 97.9% | viability at 28.5 h, 10 µM (in vitro [3]): 82.6% | activity at 1 µM [4]: 62.1% | activity at 5 µM [4]: 41.7% | activity at 10 µM [4]: 25.8%

COc1ccc([C@@H]2CN(C)C[C@H]2NC(=O)Nc2ccc(Cl)c(Cl)c2)cc1OC [CBK081111]
activity at 1 µM [1]: 118% | activity at 5 µM [1]: 21.4% | activity at 10 µM [1]: 8.62% | viability at 28.5 h, 1 µM (in vitro [2]): 92.3% | viability at 28.5 h, 5 µM (in vitro [2]): 92.2% | viability at 28.5 h, 10 µM (in vitro [2]): 88.4% | viability at 28.5 h, 10 µM (in vitro [3]): 99.3% | activity at 1 µM [4]: 105% | activity at 5 µM [4]: 25.8% | activity at 10 µM [4]: 3.39%

CCC(c1ccc(F)cc1)N(C)C(=O)Cn1cc(C(=O)NC2CCCCC2)ccc1=O (centres unmarked) [CBK286106]
activity at 1 µM [1]: 128% | activity at 5 µM [1]: 21.7% | activity at 10 µM [1]: 7.58% | viability at 28.5 h, 1 µM (in vitro [2]): 89.5% | viability at 28.5 h, 5 µM (in vitro [2]): 95.3% | viability at 28.5 h, 10 µM (in vitro [2]): 87.5% | viability at 28.5 h, 10 µM (in vitro [3]): 89.8% | activity at 1 µM [4]: 114% | activity at 5 µM [4]: 27.8% | activity at 10 µM [4]: 2.51%

COc1c(Br)cc2c(cc(C)n2-c2ccccc2)c1OCC(O)CNC(C)C (centres unmarked) [CBK263516]
activity at 1 µM [1]: 6.43% | activity at 5 µM [1]: 9.2% | activity at 10 µM [1]: 7.41% | viability at 28.5 h, 1 µM (in vitro [2]): 99.6% | viability at 28.5 h, 5 µM (in vitro [2]): 83% | viability at 28.5 h, 10 µM (in vitro [2]): 91.3% | viability at 28.5 h, 10 µM (in vitro [3]): 93.8% | activity at 1 µM [4]: 1.64% | activity at 5 µM [4]: 0.762% | activity at 10 µM [4]: 0.887%

CN(C)c1ncc(-c2cccc(Cl)c2)c(C2CCCN2C(=O)CC2CCCC2)n1 (centres unmarked) [CBK286253]
activity at 1 µM [1]: 135% | activity at 5 µM [1]: 91% | activity at 10 µM [1]: 43.9% | viability at 28.5 h, 1 µM (in vitro [2]): 97.3% | viability at 28.5 h, 5 µM (in vitro [2]): 106% | viability at 28.5 h, 10 µM (in vitro [2]): 110% | viability at 28.5 h, 10 µM (in vitro [3]): 120% | activity at 1 µM [4]: 105% | activity at 5 µM [4]: 82.7% | activity at 10 µM [4]: 44.1%

Cc1cc(C(=O)Nc2cccc(S(=O)(=O)N3CCOCC3)c2)sc1-c1ccccc1 [CBK268185]
activity at 1 µM [1]: 102% | activity at 5 µM [1]: 88.9% | activity at 10 µM [1]: 77.7% | viability at 28.5 h, 1 µM (in vitro [2]): 106% | viability at 28.5 h, 5 µM (in vitro [2]): 96.9% | viability at 28.5 h, 10 µM (in vitro [2]): 98.5% | viability at 28.5 h, 10 µM (in vitro [3]): 102% | activity at 1 µM [4]: 107% | activity at 5 µM [4]: 82.1% | activity at 10 µM [4]: 51.4%

COc1cc2c(cc1CNC(=O)c1cn(CCN)nn1)CCC2 [CBK306886]
activity at 1 µM [1]: 167% | activity at 5 µM [1]: 109% | activity at 10 µM [1]: 35.5% | viability at 28.5 h, 1 µM (in vitro [2]): 97.3% | viability at 28.5 h, 5 µM (in vitro [2]): 96.7% | viability at 28.5 h, 10 µM (in vitro [2]): 92.4% | viability at 28.5 h, 10 µM (in vitro [3]): 84.7% | activity at 1 µM [4]: 176% | activity at 5 µM [4]: 112% | activity at 10 µM [4]: 45.1%

CCOc1ccc(OCC)c2c1n(C)c(SC)[n+]2C [CBK005720G]
activity at 1 µM [1]: 139% | activity at 5 µM [1]: 64.8% | activity at 10 µM [1]: 9.96% | viability at 28.5 h, 1 µM (in vitro [2]): 90.5% | viability at 28.5 h, 5 µM (in vitro [2]): 86.2% | viability at 28.5 h, 10 µM (in vitro [2]): 83.6% | viability at 28.5 h, 10 µM (in vitro [3]): 92.1% | activity at 1 µM [4]: 97.5% | activity at 5 µM [4]: 27.2% | activity at 10 µM [4]: 3.38%

O=C(NCCc1c[nH]c2ccc(Cl)cc12)c1c(F)ccc(Cl)c1F [CBK159756]
activity at 1 µM [1]: 103% | activity at 5 µM [1]: 35.2% | activity at 10 µM [1]: 3.33% | viability at 28.5 h, 1 µM (in vitro [2]): 98.5% | viability at 28.5 h, 5 µM (in vitro [2]): 96.7% | viability at 28.5 h, 10 µM (in vitro [2]): 94.6% | viability at 28.5 h, 10 µM (in vitro [3]): 93% | activity at 1 µM [4]: 92.7% | activity at 5 µM [4]: 39.2% | activity at 10 µM [4]: 2.12%

N=c1c2c(-c3ccccc3)c(-c3ccccc3)n(Cc3ccccc3)c2ncn1CCN1CCOCC1 [CBK268537]
activity at 1 µM [1]: 123% | activity at 5 µM [1]: 83% | activity at 10 µM [1]: 70.7% | viability at 28.5 h, 1 µM (in vitro [2]): 94.8% | viability at 28.5 h, 5 µM (in vitro [2]): 97.8% | viability at 28.5 h, 10 µM (in vitro [2]): 93.4% | viability at 28.5 h, 10 µM (in vitro [3]): 92% | activity at 1 µM [4]: 119% | activity at 5 µM [4]: 66.8% | activity at 10 µM [4]: 34.6%
